Reference: ChEMBL document CHEMBL1201862, “PubChem BioAssay data set” (2004)
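Following 48 hours of exposure in 96-well plates, responses at five concentrations were used to interpolate endpoints linearly. The concentration for 50% growth inhibition is given as GI50.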 Active and inactive are the calls of the source. No stated cut-off is given here; in the data, active = GI50 up to about 1.1 µM and inactive = higher.

What was measured:
Experiment in all cases: NCI tumour cell line growth inhibition, 48 h
[1] = system: 786-0
[2] = system: A498
[3] = system: A549
[4] = system: CCRF-CEM
[5] = system: EKVX
[6] = system: HCT-15
[7] = system: KM12
[8] = system: MOLT-4
[9] = system: SF-268
[10] = system: SF-295
[11] = system: SK-MEL-2
[12] = system: SK-MEL-5
[13] = system: SK-OV-3
[14] = system: SN12C
[15] = system: TK-10
[16] = system: UO-31
[17] = system: SW-620

Row | Compound | GI50 [1] | GI50 [2] | GI50 [3] | GI50 [4] | GI50 [5] | GI50 [6] [µM] | GI50 [7] | GI50 [8] | GI50 [9] | GI50 [10] | GI50 [11] | GI50 [12] | GI50 [13] | GI50 [14] | GI50 [15] | GI50 [16] | GI50 [17]
1 | C/C(CC(=O)Nc1cccc(C)c1C)=N\NC(N)=S | > 100 µM (inactive) | > 100 µM (inactive) | > 100 µM (inactive) | 74.3 µM (inactive) | > 100 µM (inactive) | 41.8 | > 100 µM (inactive) | > 100 µM (inactive) | > 100 µM (inactive) | > 100 µM (inactive) | > 100 µM (inactive) | > 100 µM (inactive) | > 100 µM (inactive) | > 100 µM (inactive) | > 100 µM (inactive) | > 100 µM (inactive) | –
2 | COC(=O)/C1=C/C2CC(/C=C(/c3ccccc3)C(=O)O1)C2 | 37.5 µM (inactive) | – | 29.9 µM (inactive) | 19.5 µM (inactive) | 40.3 µM (inactive) | 18.8 | 23.8 µM (inactive) | 17.5 µM (inactive) | – | 32.9 µM (inactive) | – | 17.7 µM (inactive) | 36.7 µM (inactive) | 24.4 µM (inactive) | 32.7 µM (inactive) | 32.9 µM (inactive) | 33.7 µM (inactive)
3 | c1ccc2c(c1)c1ccccc1c1n[se]nc21 | 39 µM (inactive) | 19.5 µM (inactive) | 52.6 µM (inactive) | > 100 µM (inactive) | 87.9 µM (inactive) | > 100 | > 100 µM (inactive) | > 100 µM (inactive) | > 100 µM (inactive) | 43.9 µM (inactive) | > 100 µM (inactive) | > 100 µM (inactive) | 26 µM (inactive) | > 100 µM (inactive) | 48.4 µM (inactive) | 33.1 µM (inactive) | > 100 µM (inactive)
4 | C#CCN(N=O)C(=O)NCCCCC(NC(=O)OCc1ccccc1)C(=O)OCc1ccccc1 (stereo not drawn) | > 100 µM (inactive) | > 100 µM (inactive) | – | 19.3 µM (inactive) | > 100 µM (inactive) | 33.7 | > 100 µM (inactive) | 20.7 µM (inactive) | 27.6 µM (inactive) | > 100 µM (inactive) | 40 µM (inactive) | 62.4 µM (inactive) | > 100 µM (inactive) | 37.8 µM (inactive) | > 100 µM (inactive) | > 100 µM (inactive) | 17.4 µM (inactive)
5 | CC(/C=C1\CCC(CN(C)C)C1=O)c1cccc(Br)c1 (stereo not drawn) | 3.41 µM (inactive) | 26.5 µM (inactive) | 31.3 µM (inactive) | 2.52 µM (inactive) | 20.9 µM (inactive) | 14.9 | 10.1 µM (inactive) | 3.85 µM (inactive) | 21.7 µM (inactive) | 22.2 µM (inactive) | 16.7 µM (inactive) | 13.8 µM (inactive) | 65.2 µM (inactive) | 22 µM (inactive) | 15.7 µM (inactive) | 19.1 µM (inactive) | 8.18 µM (inactive)
6 | CC(C)c1ccc(C2C3=C(N=C4SCC(=O)N42)C(=O)c2ccccc23)cc1 (stereo not drawn) | > 100 µM (inactive) | > 100 µM (inactive) | 58.9 µM (inactive) | 57.3 µM (inactive) | 77.3 µM (inactive) | 88.9 | > 100 µM (inactive) | 49.7 µM (inactive) | 37.1 µM (inactive) | 82.8 µM (inactive) | > 100 µM (inactive) | 52.6 µM (inactive) | > 100 µM (inactive) | 41 µM (inactive) | > 100 µM (inactive) | 5.6 µM (inactive) | > 100 µM (inactive)
7 | CC(C)=CC(=O)Oc1ccc([N+](=O)[O-])cc1 | > 100 µM (inactive) | > 100 µM (inactive) | > 100 µM (inactive) | > 100 µM (inactive) | > 100 µM (inactive) | > 100 | 38.3 µM (inactive) | > 100 µM (inactive) | > 100 µM (inactive) | > 100 µM (inactive) | > 100 µM (inactive) | > 100 µM (inactive) | > 100 µM (inactive) | > 100 µM (inactive) | > 100 µM (inactive) | > 100 µM (inactive) | > 100 µM (inactive)
8 | O=C1CCCc2ccc([N+](=O)[O-])c(O)c21 | 89.9 µM (inactive) | 50.7 µM (inactive) | 96.2 µM (inactive) | > 100 µM (inactive) | > 100 µM (inactive) | 72.9 | > 100 µM (inactive) | > 100 µM (inactive) | 69.8 µM (inactive) | > 100 µM (inactive) | 39 µM (inactive) | > 100 µM (inactive) | > 100 µM (inactive) | 65 µM (inactive) | 55.7 µM (inactive) | 34.8 µM (inactive) | > 100 µM (inactive)
9 | C[N+](C)(C)CC1CCCC/C1=N\OC(=O)c1ccccc1 (stereo not drawn) | > 100 µM (inactive) | – | > 100 µM (inactive) | > 100 µM (inactive) | > 100 µM (inactive) | > 100 | > 100 µM (inactive) | > 100 µM (inactive) | > 100 µM (inactive) | > 100 µM (inactive) | – | > 100 µM (inactive) | > 100 µM (inactive) | > 100 µM (inactive) | 36.1 µM (inactive) | > 100 µM (inactive) | > 100 µM (inactive)
10 | S=P(c1ccccc1)(c1ccccc1)C1(C2(P(=S)(c3ccccc3)c3ccccc3)CC2)CC1 | > 100 µM (inactive) | – | > 100 µM (inactive) | > 100 µM (inactive) | > 100 µM (inactive) | > 100 | > 100 µM (inactive) | > 100 µM (inactive) | > 100 µM (inactive) | > 100 µM (inactive) | > 100 µM (inactive) | > 100 µM (inactive) | – | > 100 µM (inactive) | > 100 µM (inactive) | > 100 µM (inactive) | > 100 µM (inactive)
11 | Sc1nnc(/C=C/c2ccc(Cl)c(Cl)c2)[nH]1 | > 100 µM (inactive) | 53.8 µM (inactive) | > 100 µM (inactive) | > 100 µM (inactive) | > 100 µM (inactive) | 87.5 | > 100 µM (inactive) | 59.4 µM (inactive) | > 100 µM (inactive) | > 100 µM (inactive) | > 100 µM (inactive) | 44.8 µM (inactive) | 0.0173 µM (active) | > 100 µM (inactive) | > 100 µM (inactive) | 71.3 µM (inactive) | > 100 µM (inactive)
12 | CC1OC(n2cc(Cl)c(=O)[nH]c2=O)C=C(OC(=O)c2ccccc2)C1=O (stereo not drawn) | > 100 µM (inactive) | – | > 100 µM (inactive) | > 100 µM (inactive) | > 100 µM (inactive) | > 100 | – | > 100 µM (inactive) | – | > 100 µM (inactive) | > 100 µM (inactive) | > 100 µM (inactive) | > 100 µM (inactive) | > 100 µM (inactive) | > 100 µM (inactive) | > 100 µM (inactive) | > 100 µM (inactive)
13 | O=S(=O)(/C=C/C(=C/c1ccccc1)S(=O)(=O)c1ccccc1)c1ccccc1 | 1.77 µM (inactive) | – | 2.13 µM (inactive) | 0.778 µM (active) | 1.77 µM (inactive) | 1.51 | 2.16 µM (inactive) | 1.52 µM (inactive) | 1.91 µM (inactive) | 1.66 µM (inactive) | 1.89 µM (inactive) | – | 1.44 µM (inactive) | 1.7 µM (inactive) | 1.85 µM (inactive) | 1.82 µM (inactive) | 2.04 µM (inactive)
14 | N#C/C(=C/c1ccc([N+](=O)[O-])o1)c1ccccc1 | > 100 µM (inactive) | – | > 100 µM (inactive) | > 100 µM (inactive) | > 100 µM (inactive) | – | > 100 µM (inactive) | > 100 µM (inactive) | > 100 µM (inactive) | > 100 µM (inactive) | > 100 µM (inactive) | > 100 µM (inactive) | > 100 µM (inactive) | > 100 µM (inactive) | > 100 µM (inactive) | > 100 µM (inactive) | > 100 µM (inactive)
15 | O=C(CSc1nc(-c2ccccc2)c(-c2ccccc2)[nH]1)N/N=C/c1ccc(O)cc1 | 22.6 µM (inactive) | – | 24.2 µM (inactive) | 23.3 µM (inactive) | 30.1 µM (inactive) | – | 22.6 µM (inactive) | 15.7 µM (inactive) | 26.6 µM (inactive) | 22.4 µM (inactive) | 24.5 µM (inactive) | – | 24.8 µM (inactive) | 26.4 µM (inactive) | 27.6 µM (inactive) | 28.1 µM (inactive) | 30.8 µM (inactive)
16 | N#CC(c1ccc(Cl)cc1)c1cccc(C(C#N)c2ccc(Cl)cc2)n1 (stereo not drawn) | 50.4 µM (inactive) | 2.31 µM (inactive) | 10.6 µM (inactive) | 25.9 µM (inactive) | 25 µM (inactive) | – | 17.6 µM (inactive) | 8.02 µM (inactive) | 27 µM (inactive) | 8.43 µM (inactive) | 13.7 µM (inactive) | – | 47.4 µM (inactive) | 59.3 µM (inactive) | 7.29 µM (inactive) | 4.65 µM (inactive) | 46 µM (inactive)
17 | COc1cc2c(oc(=O)c3c4occc4cc(OC)c23)c2cccc(O)c12 | > 100 µM (inactive) | > 100 µM (inactive) | > 100 µM (inactive) | > 100 µM (inactive) | > 100 µM (inactive) | > 100 | > 100 µM (inactive) | > 100 µM (inactive) | > 100 µM (inactive) | > 100 µM (inactive) | – | > 100 µM (inactive) | > 100 µM (inactive) | > 100 µM (inactive) | > 100 µM (inactive) | > 100 µM (inactive) | > 100 µM (inactive)
18 | CC(C)(C)C1CCC2c3c([nH]c4ccccc34)C3C(=O)N(c4ccc(Br)cc4)C(=O)C3C2C1 (stereo not drawn) | 21.6 µM (inactive) | 28.6 µM (inactive) | 17.7 µM (inactive) | 16.7 µM (inactive) | 22 µM (inactive) | 13.7 | 22.3 µM (inactive) | 9.64 µM (inactive) | 24.5 µM (inactive) | 25 µM (inactive) | 19 µM (inactive) | 25.8 µM (inactive) | – | 11.4 µM (inactive) | 20.5 µM (inactive) | 14.2 µM (inactive) | 19.8 µM (inactive)
